Experimental data published in ChEMBL document CHEMBL3826948, “Alkyl substituted aminal derivatives of HCV NS5A inhibitor MK-8742” (Bioorg Med Chem Lett, 2016).

What was measured:
Conditions in all cases: Hepatitis C virus
[1] = Inhibition of NS5A in HCV genotype 2b assessed as replicon RNA levels by real time PCR based cell based assay; set-up: species or system Hepatitis C virus subtype 2b
[2] = Inhibition of NS5A in HCV genotype 1a assessed as replicon RNA levels by real time PCR based cell based assay; set-up: species or system Hepatitis C virus subtype 1a
[3] = Inhibition of NS5A in HCV genotype 3a assessed as replicon RNA levels by real time PCR based cell based assay; set-up: species or system Hepatitis C virus subtype 3a
[4] = Inhibition of NS5A in HCV genotype 4a assessed as replicon RNA levels by real time PCR based cell based assay; set-up: species or system Hepatitis C virus subtype 4a
[5] = Inhibition of NS5A in HCV genotype 1b assessed as replicon RNA levels by real time PCR based cell based assay; set-up: species or system Hepatitis C virus subtype 1b
[6] = Inhibition of NS5A in HCV genotype 2a assessed as replicon RNA levels by real time PCR based cell based assay; set-up: species or system Hepatitis C virus subtype 2a

SMILES | EC50 [1] [nM] | EC50 [2] [nM] | EC50 [3] [nM] | EC50 [4] [nM] | EC50 [5] [nM] | EC50 [6] [nM]
COC(=O)N[C@H](C(=O)N1CCC[C@H]1c1ncc(-c2cc(F)c3c(c2)OC(C2CC2C#N)n2c-3cc3cc(-c4cnc([C@@H]5CCCN5C(=O)[C@@H](NC(=O)OC)C(C)C)[nH]4)ccc32)[nH]1)C(C)C (stereo partly drawn) | 8 | 0.005 | 0.06 | – | – | –
COC(=O)N[C@H](C(=O)N1CCC[C@H]1c1ncc(-c2cc(F)c3c(c2)OC(C2CC2C(=O)O)n2c-3cc3cc(-c4cnc([C@@H]5CCCN5C(=O)[C@@H](NC(=O)OC)C(C)C)[nH]4)ccc32)[nH]1)C(C)C (stereo partly drawn) | 525 | 8 | 202 | – | – | –
COC(=O)N[C@H](C(=O)N1CCC[C@H]1c1ncc(-c2ccc3c(c2)OC(CC(C)(C)C)n2c-3cc3cc(-c4cnc([C@@H]5CCCN5C(=O)[C@@H](NC(=O)OC)C(C)C)[nH]4)ccc32)[nH]1)C(C)C (stereo partly drawn) | 73 | 0.004 | 7 | 0.02 | 0.002 | 1
CNC(=O)C1CC1C1Oc2cc(-c3cnc([C@@H]4CCCN4C(=O)[C@@H](NC(=O)OC)C(C)C)[nH]3)cc(F)c2-c2cc3cc(-c4cnc([C@@H]5CCCN5C(=O)[C@@H](NC(=O)OC)C(C)C)[nH]4)ccc3n21 (stereo partly drawn) | 52 | 1 | 10 | – | – | –
COC(=O)N[C@H](C(=O)N1CCC[C@H]1c1ncc(-c2ccc3c(c2)cc2n3C3(CCC3)Oc3cc(-c4cnc([C@@H]5C[C@@H](F)CN5C(=O)[C@@H](NC(=O)OC)C(C)C)[nH]4)cc(F)c3-2)[nH]1)C(C)C | 44 | 0.002 | 0.6 | 0.04 | 0.0005 | 0.03
CCCCCCC1Oc2cc(-c3cnc([C@@H]4CCCN4C(=O)[C@@H](NC(=O)OC)C(C)C)[nH]3)ccc2-c2cc3cc(-c4cnc([C@@H]5CCCN5C(=O)[C@@H](NC(=O)OC)C(C)C)[nH]4)ccc3n21 (stereo partly drawn) | 12 | 0.001 | 0.2 | 0.02 | 0.001 | 0.01
COC(=O)N[C@H](C(=O)N1CCC[C@H]1c1ncc(-c2ccc3c(c2)OC(C2CCCC2)n2c-3cc3cc(-c4cnc([C@@H]5CCCN5C(=O)[C@@H](NC(=O)OC)C(C)C)[nH]4)ccc32)[nH]1)C(C)C (stereo partly drawn) | 2 | 0.002 | 0.3 | 0.005 | 0.003 | 0.07
COC(=O)N[C@H](C(=O)N1CCC[C@H]1c1ncc(-c2ccc3c(c2)OC(C2CCC4(CC2)CC4)n2c-3cc3cc(-c4cnc([C@@H]5CCCN5C(=O)[C@@H](NC(=O)OC)C(C)C)[nH]4)ccc32)[nH]1)C(C)C (stereo partly drawn) | 2 | < 0.02 | 0.6 | < 0.2 | 0.02 | < 0.2
CCCC1Oc2cc(-c3cnc([C@@H]4CCCN4C(=O)[C@@H](NC(=O)OC)C(C)C)[nH]3)ccc2-c2cc3cc(-c4cnc([C@@H]5CCCN5C(=O)[C@@H](NC(=O)OC)C(C)C)[nH]4)ccc3n21 (stereo partly drawn) | 3 | 0.003 | 0.3 | 0.02 | 0.002 | 0.003
COC(=O)N[C@H](C(=O)N1CCC[C@H]1c1ncc(-c2cc(F)c3c(c2)OC(C2CC24CCCC4)n2c-3cc3cc(-c4cnc([C@@H]5CCCN5C(=O)[C@@H](NC(=O)OC)C(C)C)[nH]4)ccc32)[nH]1)C(C)C (stereo partly drawn) | > 17 | 0.006 | > 17 | – | – | –
COC(=O)N[C@H](C(=O)N1CCC[C@H]1c1ncc(-c2cc(F)c3c(c2)OC(C2CC2C(=O)N(C)C)n2c-3cc3cc(-c4cnc([C@@H]5CCCN5C(=O)[C@@H](NC(=O)OC)C(C)C)[nH]4)ccc32)[nH]1)C(C)C (stereo partly drawn) | 9 | 0.1 | 4 | – | – | –
COC(=O)N[C@H](C(=O)N1CCC[C@H]1c1ncc(-c2cc(F)c3c(c2)OC(C2CC2C)n2c-3cc3cc(-c4cnc([C@@H]5CCCN5C(=O)[C@@H](NC(=O)OC)C(C)C)[nH]4)ccc32)[nH]1)C(C)C (stereo partly drawn) | 2 | 0.006 | 0.09 | – | – | –
COC(=O)N[C@H](C(=O)N1CCC[C@H]1c1ncc(-c2ccc3c(c2)OC(C(C)C)n2c-3cc3cc(-c4cnc([C@@H]5CCCN5C(=O)[C@@H](NC(=O)OC)C(C)C)[nH]4)ccc32)[nH]1)C(C)C (stereo partly drawn) | 6 | 0.002 | 0.8 | 0.02 | 0.002 | 0.01
COCC1CC1C1Oc2cc(-c3cnc([C@@H]4CCCN4C(=O)[C@@H](NC(=O)OC)C(C)C)[nH]3)cc(F)c2-c2cc3cc(-c4cnc([C@@H]5CCCN5C(=O)[C@@H](NC(=O)OC)C(C)C)[nH]4)ccc3n21 (stereo partly drawn) | 4 | 0.009 | 0.7 | – | – | –
COC(=O)N[C@H](C(=O)N1CCC[C@H]1c1ncc(-c2ccc3c(c2)cc2n3C3(CCCC3)Oc3cc(-c4cnc([C@@H]5C[C@@H](F)CN5C(=O)[C@@H](NC(=O)OC)C(C)C)[nH]4)cc(F)c3-2)[nH]1)C(C)C | 59 | 0.005 | 3 | 0.04 | 0.002 | 0.004
COC(=O)N[C@H](C(=O)N1CCC[C@H]1c1ncc(-c2cc(F)c3c(c2)OC([C@H]2C[C@@H]2c2ccccc2)n2c-3cc3cc(-c4cnc([C@@H]5CCCN5C(=O)[C@@H](NC(=O)OC)C(C)C)[nH]4)ccc32)[nH]1)C(C)C (stereo partly drawn) | 4 | 0.005 | 0.03 | – | – | –
COC(=O)N[C@H](C(=O)N1CCC[C@H]1c1ncc(-c2ccc3c(c2)cc2n3C3(CCCCC3)Oc3cc(-c4cnc([C@@H]5C[C@@H](F)CN5C(=O)[C@@H](NC(=O)OC)C(C)C)[nH]4)cc(F)c3-2)[nH]1)C(C)C | 95 | 0.008 | 6 | 0.2 | 0.001 | 0.2
COC(=O)N[C@H](C(=O)N1CCC[C@H]1c1ncc(-c2ccc3c(c2)OC(C2CCCCC2)n2c-3cc3cc(-c4cnc([C@@H]5CCCN5C(=O)[C@@H](NC(=O)OC)C(C)C)[nH]4)ccc32)[nH]1)C(C)C (stereo partly drawn) | 1 | 0.005 | 0.8 | 0.04 | 0.002 | 0.003
COC(=O)N[C@H](C(=O)N1CCC[C@H]1c1ncc(-c2cc(F)c3c(c2)OC(C2CC2(C)C)n2c-3cc3cc(-c4cnc([C@@H]5CCCN5C(=O)[C@@H](NC(=O)OC)C(C)C)[nH]4)ccc32)[nH]1)C(C)C (stereo partly drawn) | – | 0.03 | – | – | – | –
CCCCC1Oc2cc(-c3cnc([C@@H]4CCCN4C(=O)[C@@H](NC(=O)OC)C(C)C)[nH]3)ccc2-c2cc3cc(-c4cnc([C@@H]5CCCN5C(=O)[C@@H](NC(=O)OC)C(C)C)[nH]4)ccc3n21 (stereo partly drawn) | 4 | 0.002 | 0.2 | 0.005 | 0.002 | 0.007
COC(=O)N[C@H](C(=O)N1CCC[C@H]1c1ncc(-c2ccc3c(c2)OC(CC(F)(F)F)n2c-3cc3cc(-c4cnc([C@@H]5CCCN5C(=O)[C@@H](NC(=O)OC)C(C)C)[nH]4)ccc32)[nH]1)C(C)C (mixture of isomers) | 5 | 0.006 | 0.3 | 0.02 | 0.002 | 0.02
COC(=O)N[C@H](C(=O)N1CCC[C@H]1c1ncc(-c2ccc3c(c2)OC(CCC#N)n2c-3cc3cc(-c4cnc([C@@H]5CCCN5C(=O)[C@@H](NC(=O)OC)C(C)C)[nH]4)ccc32)[nH]1)C(C)C (mixture of isomers) | 8 | 0.03 | 1 | – | – | –
COC(=O)N[C@H](C(=O)N1CCC[C@H]1c1ncc(-c2ccc3c(c2)OC(CCC(=O)O)n2c-3cc3cc(-c4cnc([C@@H]5CCCN5C(=O)[C@@H](NC(=O)OC)C(C)C)[nH]4)ccc32)[nH]1)C(C)C (mixture of isomers) | 124 | 8 | 33 | – | – | –
CCCCCC1CC2CCC1CC2C1Oc2cc(-c3cnc([C@@H]4CCCN4C(=O)[C@@H](NC(=O)OC)C(C)C)[nH]3)ccc2-c2cc3cc(-c4cnc([C@@H]5CCCN5C(=O)[C@@H](NC(=O)OC)C(C)C)[nH]4)ccc3n21 (mixture of isomers) | 2 | 0.02 | > 17 | – | – | –
COC(=O)N[C@H](C(=O)N1CCC[C@H]1c1ncc(-c2ccc3c(c2)OC(CC2CCCC2)n2c-3cc3cc(-c4cnc([C@@H]5CCCN5C(=O)[C@@H](NC(=O)OC)C(C)C)[nH]4)ccc32)[nH]1)C(C)C (mixture of isomers) | – | – | – | – | – | 4
COC(=O)N[C@H](C(=O)N1CCC[C@H]1c1ncc(-c2ccc3c(c2)OC(CC2CCCCC2)n2c-3cc3cc(-c4cnc([C@@H]5CCCN5C(=O)[C@@H](NC(=O)OC)C(C)C)[nH]4)ccc32)[nH]1)C(C)C (mixture of isomers) | – | 0.006 | 3 | 0.04 | 0.002 | 0.09
COC(=O)N[C@H](C(=O)N1CCC[C@H]1c1ncc(-c2ccc3c(c2)OC(CC2CC2)n2c-3cc3cc(-c4cnc([C@@H]5CCCN5C(=O)[C@@H](NC(=O)OC)C(C)C)[nH]4)ccc32)[nH]1)C(C)C (mixture of isomers) | 9 | 0.01 | – | – | 0.01 | –
COC(=O)CCC1Oc2cc(-c3cnc([C@@H]4CCCN4C(=O)[C@@H](NC(=O)OC)C(C)C)[nH]3)ccc2-c2cc3cc(-c4cnc([C@@H]5CCCN5C(=O)[C@@H](NC(=O)OC)C(C)C)[nH]4)ccc3n21 (mixture of isomers) | 9 | 0.02 | 4 | – | – | –
COC(=O)N[C@H](C(=O)N1CCC[C@H]1c1ncc(-c2ccc3c(c2)OC(C2CCOCC2)n2c-3cc3cc(-c4cnc([C@@H]5CCCN5C(=O)[C@@H](NC(=O)OC)C(C)C)[nH]4)ccc32)[nH]1)C(C)C (mixture of isomers) | – | 0.009 | 0.8 | 0.04 | 0.004 | 0.03
